From patent US8471005B2 (Cephalon, Inc., priority 2008, dated 2013)
Where two headings read alike, the source gives them in different places.

Columns and labels:
JAK2 = target: T1, JAK2 (Homo sapiens, UniProt O60674); assay: Recombinant Human JAK2 Kinase Assay (TRF); format: biochemical; conditions: read-out: JAK2 Potency
T1 construct: host or cells: baculovirus expression system
Outline: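 Baculovirus-expressed JAK2 (15 ng/ml) phosphorylated a biotinylated 15-mer peptide captured on Neutravidin, in 20 mM HEPES pH 7.2, 0.2 μM ATP, 1 mM MnCl2, 0.1% BSA, 2.5% DMSO final, 20 min at room temperature. Phosphoproduct detected by time-resolved fluorescence with Eu-N1-labelled PY100 antibody.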

ALK = target: T2, ALK (Homo sapiens, UniProt Q9UM73); assay: ALK Kinase Assay (ELISA/TRF, PLC-γ substrate); format: biochemical; conditions: read-out: ALK Potency
T2 construct: host or cells: baculovirus expression system
Outline: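 Time-resolved fluorescence ELISA using Eu-N1 PT66 antibody to detect phosphorylated PLC-γ (coated at 10 μg/mL). Enzyme at 30 ng/ml ALK; 15 min incubation, 37° C.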

[1] = JAK2 kinase inhibition, 0.2 μM ATP
[2] = ALK kinase inhibition, 1 μM ATP

T2 sequence (Q9UM73 19-1620): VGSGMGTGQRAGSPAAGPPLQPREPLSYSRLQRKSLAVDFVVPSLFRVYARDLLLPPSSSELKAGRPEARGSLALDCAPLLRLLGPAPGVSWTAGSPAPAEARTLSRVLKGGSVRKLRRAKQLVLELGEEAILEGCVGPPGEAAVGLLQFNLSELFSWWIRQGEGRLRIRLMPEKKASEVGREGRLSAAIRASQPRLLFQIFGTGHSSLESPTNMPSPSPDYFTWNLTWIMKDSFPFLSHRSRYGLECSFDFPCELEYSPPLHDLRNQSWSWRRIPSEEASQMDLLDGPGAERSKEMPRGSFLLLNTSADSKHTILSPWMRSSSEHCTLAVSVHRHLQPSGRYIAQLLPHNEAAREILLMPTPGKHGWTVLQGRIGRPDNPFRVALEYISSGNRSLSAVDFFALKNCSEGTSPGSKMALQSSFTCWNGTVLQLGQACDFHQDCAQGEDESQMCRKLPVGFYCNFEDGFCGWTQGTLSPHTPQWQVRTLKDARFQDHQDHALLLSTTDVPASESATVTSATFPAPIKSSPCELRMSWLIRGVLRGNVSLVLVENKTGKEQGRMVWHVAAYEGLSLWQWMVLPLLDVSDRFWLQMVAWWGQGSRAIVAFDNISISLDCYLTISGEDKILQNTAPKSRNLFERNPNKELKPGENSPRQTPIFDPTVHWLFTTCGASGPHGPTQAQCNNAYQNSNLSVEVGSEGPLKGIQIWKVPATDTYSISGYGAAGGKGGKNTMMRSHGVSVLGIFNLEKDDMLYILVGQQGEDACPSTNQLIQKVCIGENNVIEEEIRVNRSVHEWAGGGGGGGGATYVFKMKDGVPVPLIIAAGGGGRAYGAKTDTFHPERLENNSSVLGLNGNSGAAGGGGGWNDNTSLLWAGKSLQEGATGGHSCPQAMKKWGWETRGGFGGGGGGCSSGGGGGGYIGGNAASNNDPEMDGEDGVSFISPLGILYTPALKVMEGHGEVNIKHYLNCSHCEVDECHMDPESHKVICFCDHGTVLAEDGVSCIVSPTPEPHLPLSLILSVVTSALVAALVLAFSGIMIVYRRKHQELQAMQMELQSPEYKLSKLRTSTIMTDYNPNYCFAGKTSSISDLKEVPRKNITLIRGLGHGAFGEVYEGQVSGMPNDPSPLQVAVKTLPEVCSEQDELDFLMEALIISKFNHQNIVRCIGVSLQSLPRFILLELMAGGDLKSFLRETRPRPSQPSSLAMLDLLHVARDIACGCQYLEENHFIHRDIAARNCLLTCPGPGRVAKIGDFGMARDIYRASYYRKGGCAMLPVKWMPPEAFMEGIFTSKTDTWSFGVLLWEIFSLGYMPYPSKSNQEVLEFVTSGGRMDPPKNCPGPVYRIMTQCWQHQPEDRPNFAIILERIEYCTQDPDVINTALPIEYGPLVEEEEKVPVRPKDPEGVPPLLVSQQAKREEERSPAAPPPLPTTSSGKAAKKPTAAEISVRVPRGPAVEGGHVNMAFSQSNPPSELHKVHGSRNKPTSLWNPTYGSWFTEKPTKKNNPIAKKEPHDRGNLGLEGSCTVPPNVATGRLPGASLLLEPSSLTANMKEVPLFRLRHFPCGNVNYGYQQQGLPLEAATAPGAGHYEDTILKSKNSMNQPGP
T1 sequence (O60674 whole entry): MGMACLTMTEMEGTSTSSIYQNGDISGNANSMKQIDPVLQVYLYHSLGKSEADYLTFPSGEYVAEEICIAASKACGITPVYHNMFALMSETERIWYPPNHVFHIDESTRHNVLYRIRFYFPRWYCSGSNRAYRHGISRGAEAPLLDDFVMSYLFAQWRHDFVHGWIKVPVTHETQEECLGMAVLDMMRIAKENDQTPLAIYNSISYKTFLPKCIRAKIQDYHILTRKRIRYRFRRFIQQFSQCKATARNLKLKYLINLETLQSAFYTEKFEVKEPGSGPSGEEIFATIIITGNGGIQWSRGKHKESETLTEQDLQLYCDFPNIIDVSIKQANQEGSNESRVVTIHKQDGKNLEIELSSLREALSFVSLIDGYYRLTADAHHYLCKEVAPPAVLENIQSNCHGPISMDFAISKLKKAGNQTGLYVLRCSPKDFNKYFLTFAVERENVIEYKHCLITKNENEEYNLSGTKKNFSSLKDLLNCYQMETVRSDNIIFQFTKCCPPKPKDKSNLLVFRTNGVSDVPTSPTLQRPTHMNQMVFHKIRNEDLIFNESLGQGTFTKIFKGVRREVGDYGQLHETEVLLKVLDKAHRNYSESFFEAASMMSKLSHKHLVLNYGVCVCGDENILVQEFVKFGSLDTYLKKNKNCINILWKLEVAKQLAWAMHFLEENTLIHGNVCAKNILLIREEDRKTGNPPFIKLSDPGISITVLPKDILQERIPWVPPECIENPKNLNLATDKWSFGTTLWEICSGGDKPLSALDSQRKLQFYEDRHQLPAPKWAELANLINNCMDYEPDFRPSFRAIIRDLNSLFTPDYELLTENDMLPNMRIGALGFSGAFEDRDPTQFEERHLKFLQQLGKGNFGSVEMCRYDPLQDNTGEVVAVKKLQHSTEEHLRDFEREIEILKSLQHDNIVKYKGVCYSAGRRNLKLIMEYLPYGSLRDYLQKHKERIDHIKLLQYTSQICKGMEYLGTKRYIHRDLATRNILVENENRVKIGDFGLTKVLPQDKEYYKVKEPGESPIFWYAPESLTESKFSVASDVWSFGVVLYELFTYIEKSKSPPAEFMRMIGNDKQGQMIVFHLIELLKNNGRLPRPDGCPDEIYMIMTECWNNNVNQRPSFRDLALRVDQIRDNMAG

## COc1cc(CN2CCOCC2)ccc1Nc1ncc2ccc(-c3ccccc3OC)n2n1 [Example 1220, (2-Methoxy-4-morpholin-4-ylmethyl-phenyl)-[7-(2-methoxy-phenyl)-pyrrolo[2,1-f][1,2,4]triazin-2-yl]-amine]
JAK2; [1]
  IC50: 100 to 1000 nM
ALK; [2]
  IC50: < 100 nM

## COc1ccc(-c2ccc3cnc(Nc4cc5c(cc4F)CCC(=O)N5)nn23)cn1 [Example 983, 6-Fluoro-7-[7-(6-methoxy-pyridin-3-yl)-pyrrolo[2,1-f][1,2,4]triazin-2-ylamino]-3,4-dihydro-1H-quinolin-2-one]
JAK2; [1]
  IC50: < 100 nM
ALK; [2]
  IC50: > 10000 nM

## N-{2-[2-(3,3-Dimethyl-2-oxo-2,3-dihydro-1H-indol-6-ylmethyl)-pyrrolo[2,1-f][1,2,4]triazin-7-yl]-phenyl}-N-methyl-methanesulfonamide [Example 661]
JAK2; [1]
  IC50: < 100 nM
ALK; [2]
  IC50: 100 to 1000 nM

## O=S(=O)(c1cccc(-c2ccc3cnc(Nc4ccc(C5CCN(CCO)CC5)cc4)nn23)c1)N1CCCC1 [Example 678, 2-[4-(4-{7-[3-(Pyrrolidine-1-sulfonyl)-phenyl]-pyrrolo[2,1-f][1,2,4]triazin-2-ylamino}-phenyl)-piperidin-1-yl]ethanol]
JAK2; [1]
  IC50: < 100 nM
ALK; [2]
  IC50: 100 to 1000 nM

## CC(=O)N1CC(C)(C)c2ccc(Nc3ncc4ccc(-c5cnn(C)c5)n4n3)cc21 [Example 968, 1-{3,3-Dimethyl-6-[7-(1-methyl-1H-pyrazol-4-yl)-pyrrolo[2,1-f][1,2,4]triazin-2-ylamino]-2,3-dihydro-indol-1-yl}-ethanone]
JAK2; [1]
  IC50: < 100 nM
ALK; [2]
  IC50: 100 to 1000 nM

## CN1CCN(c2ccc(Nc3ncc4ccc(NCc5cccnc5)n4n3)cc2)CC1 [Example 1164, N(2)-[4-(4-Methyl-piperazin-1-yl)-phenyl]-N(7)-pyridin-3-ylmethyl-pyrrolo[2,1-f][1,2,4]triazine-2,7-diamine]
JAK2; [1]
  IC50: < 100 nM
ALK; [2]
  IC50: 100 to 1000 nM

## Cc1cc(Nc2ncc3ccc(-c4cccc(S(=O)(=O)NC(C)(C)C)c4)n3n2)ccc1C1CCN(CC(N)=O)CC1 [Example 938, 2-(4-{4-[7-(3-tert-Butylsulfamoyl-phenyl)-pyrrolo[2,1-f][1,2,4]triazin-2-ylamino]-2-methyl-phenyl}-piperidin-1-yl)-acetamide]
JAK2; [1]
  IC50: < 100 nM
ALK; [2]
  IC50: < 100 nM

## Cn1cc(-c2ccc3cnc(Nc4ccc(N5CCC(N6CCOCC6)CC5)cc4)nn23)cn1 [Example 1187, [7-(1-Methyl-1H-pyrazol-4-yl)-pyrrolo[2,1-f][1,2,4]triazin-2-yl]-[4-(4-morpholin-4-yl-piperidin-1-yl)-phenyl]-amine]
JAK2; [1]
  IC50: < 100 nM
ALK; [2]
  IC50: 100 to 1000 nM

## CN1CCN(c2cccc(Nc3ncc4ccc(-c5cccc6c5OC(F)(F)O6)n4n3)c2)CC1 [Example 1534, [7-(2,2-Difluoro-benzo[1,3]dioxol-4-yl)-pyrrolo[2,1-f][1,2,4]triazin-2-yl]-[3-(4-methyl-piperazin-1-yl)-phenyl]-amine]
JAK2; JAK2 Kinase Inhibition
  IC50: < 100 nM
ALK; ALK Kinase Inhibition
  IC50: 100 to 1000 nM

## CC(C)(C)NS(=O)(=O)c1cccc(-c2ccc3cnc(Nc4ccc(C5CN(CC(N)=O)C5)cc4)nn23)c1 [Example 577, 2-(3-{4-[7-(3-tert-Butylsulfamoyl-phenyl)-pyrrolo[2,1-f][1,2,4]triazin-2-ylamino]-phenyl}-azetidin-1-yl)-acetamide]
JAK2; [1]
  IC50: < 100 nM
ALK; [2]
  IC50: 100 to 1000 nM

## Cn1cc(-c2ccc3cnc(Nc4cccc(-n5cccn5)c4)nn23)cn1 [Example 964, [7-(1-Methyl-1H-pyrazol-4-yl)pyrrolo[2,1f][1,2,4]triazin-2-yl]-(3-pyrazol-1-yl-phenyl)-amine]
JAK2; [1]
  IC50: < 100 nM
ALK; [2]
  IC50: 1000 to 10000 nM

## CN1CCN(CCOc2ccc(Nc3ncc4ccc(-c5cccnc5)n4n3)cc2)CC1 [Example 119, {4-[2-(4-Methyl-piperazin-1-yl)-ethoxy]-phenyl}-(7-pyridin-3-yl-pyrrolo[2,1-f][1,2,4]triazin-2-yl)-amine]
JAK2; JAK2 Kinase Inhibition
  IC50: < 100 nM
ALK; ALK Kinase Inhibition
  IC50: 100 to 1000 nM

## COc1ccc(-c2ccc3cnc(Nc4ccc(N5CCC(CO)CC5)cc4)nn23)cn1 [Example 1102, (1-{4-[7-(6-Methoxy-pyridin-3-yl)-pyrrolo[2,1-f][1,2,4]triazin-2-ylamino]-phenyl}-piperidin-4-yl)-methanol]
JAK2; [1]
  IC50: < 100 nM
ALK; [2]
  IC50: 100 to 1000 nM

## c1cncc(-c2ccc3cnc(Nc4ccc(OCCN5CCOCC5)cc4)nn23)c1 [Example 125, [4-(2-Morpholin-4-yl-ethoxy)-phenyl]-(7-pyridin-3-yl-pyrrolo[2,1-f][1,2,4]triazin-2-yl)-amine]
JAK2; JAK2 Kinase Inhibition
  IC50: < 100 nM
ALK; ALK Kinase Inhibition
  IC50: 100 to 1000 nM

## CON=C1CCC(c2ccc(Nc3ncc4ccc(-c5cccc(S(=O)(=O)NC(C)(C)C)c5)n4n3)cc2)CC1 (stereo not shown) [Example 571, N-tert-Butyl-3-{2-[4-(4-methoxyimino-cyclohexyl)-phenylamino]-pyrrolo[2,1-f][1,2,4]triazin-7-yl}-benzenesulfonamide]
JAK2; [1]
  IC50: < 100 nM
ALK; [2]
  IC50: > 10000 nM

## COc1cc(C2CCN(CC(N)=O)CC2)ccc1Nc1ncc2c(O)cc(-c3ccccc3N(C)S(C)(=O)=O)n2n1 [Example 1259, 2-[4-(4-{5-Hydroxy-7-[2-(methanesulfonyl-methyl-amino)-phenyl]-pyrrolo[2,1-f][1,2,4]triazin-2-ylamino}-3-methoxy-phenyl)-piperidin-1-yl]-acetamide]
JAK2; [1]
  IC50: 1000 to 10000 nM
ALK; [2]
  IC50: < 100 nM

## (±)-1-Fluoro-3-(4-{3-methoxy-4-[7-(2-methoxy-phenyl)-pyrrolo[2,1-f][1,2,4]triazin-2-ylamino]-phenyl}-piperidin-1-yl)-propan-2-ol [Example 825]
JAK2; [1]
  IC50: 100 to 1000 nM
ALK; [2]
  IC50: < 100 nM

## Cc1cc(Nc2ncc3ccc(-c4cccc(Cl)c4)n3n2)ccc1N1CCOCC1 [Example 66, [7-(3-Chloro-phenyl)-pyrrolo[2,1-f][1,2,4]triazin-2-yl]-(3-methyl-4-morpholin-4-yl-phenyl)-amine]
JAK2; JAK2 Kinase Inhibition
  IC50: < 100 nM
ALK; ALK Kinase Inhibition
  IC50: 1000 to 10000 nM

## CN1CCC(C(=O)N2CCC(c3ccc(Nc4ncc5ccc(-c6ccccc6N(C)S(C)(=O)=O)n5n4)cc3)CC2)CC1 [Example 502, N-Methyl-N-[2-(2-{4-[1-(1-methyl-piperidine-4-carbonyl)-piperidin-4-yl]-phenylamino}-pyrrolo[2,1-f][1,2,4]triazin-7-yl)-phenyl]-methanesulfonamide]
JAK2; [1]
  IC50: < 100 nM
ALK; [2]
  IC50: < 100 nM

## COc1ccccc1-c1ccc2cnc(Nc3ccc4c(c3)C(NC(=O)OC(C)(C)C)C(O)C4)nn12 (stereo not shown) [Example 673, {2-Hydroxy-6-[7-(2-methoxy-phenyl)-pyrrolo[2,1-f][1,2,4]triazin-2-ylamino]-indan-1-yl}-carbamic acid tert-butyl ester]
JAK2; [1]
  IC50: < 100 nM
ALK; [2]
  IC50: 100 to 1000 nM

## COc1cccc(Nc2ncc3ccc(-c4cccc(Cl)c4)n3n2)c1 [Example 146, [7-(3-Chloro-phenyl)-pyrrolo[2,1-f][1,2,4]triazin-2-yl]-(3-methoxy-phenyl)-amine]
JAK2; JAK2 Kinase Inhibition
  IC50: < 100 nM
ALK; ALK Kinase Inhibition
  IC50: > 10000 nM

## CC(C)(C)NS(=O)(=O)c1cccc(-c2ccc3cnc(Nc4cccc(C(=O)O)c4)nn23)c1 [Example 895, 3-[7-(3-tert-Butylsulfamoyl-phenyl)-pyrrolo[2,1-f][1,2,4]triazin-2-ylamino]-benzoic acid]
JAK2; [1]
  IC50: < 100 nM
ALK; [2]
  IC50: 1000 to 10000 nM

## CN1CCN(c2cccc(Nc3ncc4ccc(-c5cccc(Cl)c5)n4n3)c2)CC1 [Example 161, [7-(3-Chloro-phenyl)-pyrrolo[2,1-f][1,2,4]triazin-2-yl]-[3-(4-methyl-piperazin-1-yl)-phenyl]-amine]
JAK2; JAK2 Kinase Inhibition
  IC50: < 100 nM
ALK; ALK Kinase Inhibition
  IC50: 100 to 1000 nM

## CCN(CC)C1CCN(c2ccc(Nc3ncc4ccc(-c5cccc(S(C)(=O)=O)c5)n4n3)cc2)CC1 [Example 1137, [4-(4-Diethylamino-piperidin-1-yl)-phenyl]-[7-(3-methanesulfonyl-phenyl)-pyrrolo[2,1-f][1,2,4]triazin-2-yl]-amine]
JAK2; [1]
  IC50: < 100 nM
ALK; [2]
  IC50: 100 to 1000 nM

## CN1CCN(c2ccc(Nc3ncc4ccc(-c5cccc6c5OCCO6)n4n3)cc2)CC1 [Example 548, [7-(2,3-Dihydro-1,4-benzodioxin-5-yl)-pyrrolo[2,1-f][1,2,4]triazin-2-yl]-[4-(4-methyl-piperazin-1-yl)-phenyl]-amine]
JAK2; [1]
  IC50: < 100 nM
ALK; [2]
  IC50: < 100 nM

## COc1cc(C2CCNCC2)ccc1Nc1ncc2ccc(-c3cccc(S(=O)(=O)NC(C)(C)C)c3)n2n1 [Example 691, N-tert-Butyl-3-[2-(2-methoxy-4-piperidin-4-yl-phenylamino)-pyrrolo[2,1-f][1,2,4]triazin-7-yl]-benzenesulfonamide]
JAK2; [1]
  IC50: 100 to 1000 nM
ALK; [2]
  IC50: < 100 nM

## COc1cc2c(cc1Nc1ncc3ccc(-c4ccccc4OC)n3n1)CCN(C[C@@H](C)O)CC2 [Example 991, (R)-1-{7-Methoxy-8-[7-(2-methoxy-phenyl)-pyrrolo[2,1-f][1,2,4]triazin-2-ylamino]-1,2,4,5-tetrahydro-benzo[d]azepin-3-yl}-propan-2-ol]
JAK2; [1]
  IC50: 100 to 1000 nM
ALK; [2]
  IC50: < 100 nM

## COc1ccccc1-c1ccc2cnc(Nc3ccc(C4CC5CCC(C4)N5C)cc3)nn12 (stereo not shown) [Example 945, [7-(2-Methoxy-phenyl)-pyrrolo[2,1-f][1,2,4]triazin-2-yl]-[4-(8-methyl-8-azabicyclo[3.2.1]oct-3-yl)-phenyl]-amine]
JAK2; [1]
  IC50: < 100 nM
ALK; [2]
  IC50: < 100 nM

## COc1cc2c(cc1Nc1ncc3ccc(-c4ccccc4OC)n3n1)CN(C(=O)OC(C)(C)C)C2 [Example 874, 5-Methoxy-6-[7-(2-methoxy-phenyl)-pyrrolo[2,1-f][1,2,4]triazin-2-ylamino]-1,3-dihydro-isoindole-2-carboxylic acid tert-butyl ester]
JAK2; [1]
  IC50: 1000 to 10000 nM
ALK; [2]
  IC50: 1000 to 10000 nM
